According to ChEMBL document CHEMBL1201862, “PubChem BioAssay data set” (2004):
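Following 48 hours of exposure in 96-well plates, responses at five concentrations were used to interpolate endpoints linearly. GI50 = concentration required for 50% inhibition of growth.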 The source made the active and inactive calls. Cut-off read from the data, not from the text of the source: active = GI50 up to about 1.1 µM and inactive = higher.

Tests used:
Assay in all cases: NCI anticancer screen, dose series, 48 h
HCT-116 = system: HCT-116
SK-MEL-28 = system: SK-MEL-28
MOLT-4 = system: MOLT-4
SNB-75 = system: SNB-75
SNB-19 = system: SNB-19
K562 = system: K562
SK-MEL-5 = system: SK-MEL-5
MDA-MB-231 = system: MDA-MB-231
PC-3 = system: PC-3
NCI-H23 = system: NCI-H23
SK-OV-3 = system: SK-OV-3
HT-29 = system: HT-29
SF-295 = system: SF-295
Hs-578T = system: Hs-578T
U-251 = system: U-251
NCI-H522 = system: NCI-H522
SF-539 = system: SF-539
HOP-92 = system: HOP-92
UACC-62 = system: UACC-62
KM12 = system: KM12
RPMI-8226 = system: RPMI-8226
SW-620 = system: SW-620
NCI/ADR-RES = system: NCI/ADR-RES
CAKI-1 = system: CAKI-1
ACHN = system: ACHN
TK-10 = system: TK-10
RXF 393 = system: RXF 393
OVCAR-5 = system: OVCAR-5
IGROV-1 = system: IGROV-1
OVCAR-3 = system: OVCAR-3
CCRF-CEM = system: CCRF-CEM
MCF7 = system: MCF7
NCI-H226 = system: NCI-H226
OVCAR-8 = system: OVCAR-8
MDA-N = system: MDA-N
A549 = system: A549
BT-549 = system: BT-549
NCI-H460 = system: NCI-H460
LOX IMVI = system: LOX IMVI
HCT-15 = system: HCT-15
HOP-62 = system: HOP-62
M14 = system: M14
SN12C = system: SN12C
SR = system: SR
MDA-MB-435 = system: MDA-MB-435
DU-145 = system: DU-145
786-0 = system: 786-0
A498 = system: A498
SF-268 = system: SF-268
HCC 2998 = system: HCC 2998
COLO 205 = system: COLO 205
UO-31 = system: UO-31
T47D = system: T47D
UACC-257 = system: UACC-257
OVCAR-4 = system: OVCAR-4
EKVX = system: EKVX
HL-60 = system: HL-60
SK-MEL-2 = system: SK-MEL-2
Malme-3M = system: Malme-3M

Measured: GI50

O=C1OC(c2ccccc2)=NC1c1ccccc1 (stereo not given)
inactive: HCT-116 > 100 µM | SK-MEL-28 > 100 µM | MOLT-4 > 100 µM | SNB-75 > 100 µM | SNB-19 > 100 µM | K562 > 100 µM | SK-MEL-5 > 100 µM | MDA-MB-231 > 100 µM | PC-3 > 100 µM | NCI-H23 > 100 µM | SK-OV-3 > 100 µM | HT-29 > 100 µM | SF-295 > 100 µM | Hs-578T > 100 µM | U-251 > 100 µM | NCI-H522 > 100 µM | SF-539 > 100 µM | HOP-92 > 100 µM | UACC-62 > 100 µM | KM12 > 100 µM | RPMI-8226 > 100 µM | SW-620 > 100 µM | NCI/ADR-RES > 100 µM | CAKI-1 > 100 µM | ACHN > 100 µM | TK-10 > 100 µM | RXF 393 > 100 µM | OVCAR-5 > 100 µM | IGROV-1 > 100 µM | OVCAR-3 > 100 µM | CCRF-CEM > 100 µM | MCF7 > 100 µM | NCI-H226 > 100 µM | OVCAR-8 > 100 µM | MDA-N > 100 µM | A549 > 100 µM | BT-549 > 100 µM | NCI-H460 > 100 µM | LOX IMVI > 100 µM | HOP-62 > 100 µM | M14 > 100 µM | SN12C > 100 µM | SR > 100 µM | MDA-MB-435 > 100 µM | DU-145 > 100 µM | 786-0 > 100 µM | A498 > 100 µM | SF-268 > 100 µM | HCC 2998 > 100 µM | COLO 205 > 100 µM | UO-31 > 100 µM | T47D > 100 µM | UACC-257 > 100 µM | OVCAR-4 > 100 µM | EKVX > 100 µM | HL-60 > 100 µM
> 100 µM: HCT-15

OCCCCCNc1c2ccccc2nc2ccccc12
active: ACHN 0.818 µM | NCI-H460 1.01 µM | HCC 2998 1.01 µM
inactive: HCT-116 1.45 µM | SK-MEL-28 3.85 µM | MOLT-4 2.4 µM | SNB-75 5.52 µM | SNB-19 3.03 µM | K562 2.37 µM | SK-MEL-5 1.71 µM | MDA-MB-231 2.74 µM | PC-3 1.98 µM | NCI-H23 2.02 µM | SK-OV-3 3.05 µM | HT-29 1.44 µM | SF-295 2.75 µM | Hs-578T 3.18 µM | U-251 3.73 µM | NCI-H522 2.04 µM | SK-MEL-2 2.62 µM | SF-539 2.75 µM | UACC-62 1.8 µM | KM12 3.13 µM | RPMI-8226 3.44 µM | SW-620 2.55 µM | NCI/ADR-RES 7.46 µM | CAKI-1 2.91 µM | TK-10 3.6 µM | RXF 393 2.86 µM | OVCAR-5 2.51 µM | IGROV-1 3.03 µM | OVCAR-3 3.86 µM | Malme-3M 1.9 µM | CCRF-CEM 2.5 µM | MCF7 2.33 µM | OVCAR-8 2.34 µM | MDA-N 2.54 µM | A549 2.65 µM | BT-549 6.17 µM | LOX IMVI 1.89 µM | HOP-62 1.38 µM | M14 2.74 µM | SN12C 2.54 µM | SR 1.37 µM | MDA-MB-435 2.68 µM | DU-145 3.02 µM | 786-0 2.34 µM | A498 3.73 µM | SF-268 2.75 µM | COLO 205 1.53 µM | UO-31 2.38 µM | T47D 2.82 µM | UACC-257 2.02 µM | OVCAR-4 2.31 µM | EKVX 3.4 µM | HL-60 3.44 µM
3.57 µM: HCT-15

O=C1OCC/C1=C/c1ccc(/N=N/c2c(O)ccc3ccccc23)cc1
24.9 µM: HCT-15
inactive: HCT-116 17.6 µM | SK-MEL-28 18.9 µM | MOLT-4 19.5 µM | SNB-75 24.8 µM | SNB-19 39.4 µM | K562 28.6 µM | SK-MEL-5 21.9 µM | MDA-MB-231 50.2 µM | PC-3 19.9 µM | NCI-H23 19.5 µM | SK-OV-3 28.3 µM | HT-29 19.4 µM | SF-295 25.3 µM | Hs-578T 27.2 µM | U-251 18.7 µM | NCI-H522 22.9 µM | SK-MEL-2 26.7 µM | SF-539 18.4 µM | HOP-92 27.4 µM | UACC-62 29.5 µM | KM12 5.11 µM | RPMI-8226 21.6 µM | SW-620 19.2 µM | NCI/ADR-RES 20.1 µM | CAKI-1 19.7 µM | ACHN 17.5 µM | TK-10 19.9 µM | RXF 393 19.3 µM | OVCAR-5 22.3 µM | IGROV-1 25.8 µM | OVCAR-3 18.1 µM | Malme-3M 15.6 µM | CCRF-CEM 22.9 µM | MCF7 24.8 µM | NCI-H226 19.4 µM | OVCAR-8 26.7 µM | MDA-N 13.8 µM | A549 18.6 µM | BT-549 23.2 µM | NCI-H460 19.7 µM | HOP-62 21.9 µM | M14 27.5 µM | SN12C 18.2 µM | SR 15.2 µM | MDA-MB-435 23.1 µM | DU-145 17.7 µM | 786-0 19.1 µM | A498 15.1 µM | SF-268 19.8 µM | HCC 2998 20.9 µM | COLO 205 25.1 µM | UO-31 19.1 µM | T47D 39.4 µM | UACC-257 20.7 µM | OVCAR-4 18.6 µM | EKVX 19.1 µM | HL-60 22.6 µM

O=C1CSC2(CC(/C=C/c3ccccc3Br)=NN2c2cccc(S(=O)(=O)O)c2)N1c1nc2ccccc2s1 (stereo not given)
> 100 µM: HCT-15
inactive: HCT-116 > 100 µM | SK-MEL-28 > 100 µM | MOLT-4 52 µM | SNB-75 > 100 µM | SNB-19 > 100 µM | K562 54.8 µM | SK-MEL-5 76 µM | MDA-MB-231 > 100 µM | PC-3 > 100 µM | NCI-H23 > 100 µM | HT-29 > 100 µM | Hs-578T > 100 µM | U-251 75.5 µM | NCI-H522 52 µM | SK-MEL-2 > 100 µM | SF-539 > 100 µM | HOP-92 87.9 µM | UACC-62 51.5 µM | KM12 98.4 µM | RPMI-8226 44.8 µM | SW-620 > 100 µM | NCI/ADR-RES > 100 µM | CAKI-1 > 100 µM | ACHN > 100 µM | TK-10 45.7 µM | RXF 393 > 100 µM | OVCAR-5 > 100 µM | IGROV-1 55.1 µM | Malme-3M > 100 µM | CCRF-CEM 30.5 µM | MCF7 50.4 µM | NCI-H226 53.2 µM | OVCAR-8 > 100 µM | MDA-N > 100 µM | A549 > 100 µM | BT-549 > 100 µM | NCI-H460 > 100 µM | LOX IMVI > 100 µM | M14 > 100 µM | SN12C > 100 µM | SR 33 µM | MDA-MB-435 43.1 µM | DU-145 > 100 µM | 786-0 > 100 µM | A498 > 100 µM | SF-268 > 100 µM | HCC 2998 > 100 µM | COLO 205 > 100 µM | UO-31 93.5 µM | T47D 27.6 µM | UACC-257 > 100 µM | OVCAR-4 75.9 µM | EKVX > 100 µM | HL-60 > 100 µM

COc1ccc2c(c1)CCc1c(-c3noc4c3CCc3cc(OC)ccc3-4)noc1-2
> 100 µM: HCT-15
inactive: HCT-116 > 100 µM | SK-MEL-28 > 100 µM | MOLT-4 > 100 µM | SNB-75 > 100 µM | SNB-19 > 100 µM | K562 > 100 µM | SK-MEL-5 > 100 µM | MDA-MB-231 > 100 µM | PC-3 > 100 µM | NCI-H23 > 100 µM | SK-OV-3 > 100 µM | HT-29 > 100 µM | SF-295 > 100 µM | Hs-578T > 100 µM | U-251 > 100 µM | NCI-H522 > 100 µM | SK-MEL-2 > 100 µM | SF-539 > 100 µM | HOP-92 > 100 µM | UACC-62 > 100 µM | KM12 > 100 µM | RPMI-8226 > 100 µM | SW-620 > 100 µM | NCI/ADR-RES > 100 µM | CAKI-1 > 100 µM | ACHN > 100 µM | TK-10 > 100 µM | RXF 393 > 100 µM | OVCAR-5 > 100 µM | IGROV-1 > 100 µM | OVCAR-3 > 100 µM | Malme-3M > 100 µM | MCF7 > 100 µM | NCI-H226 > 100 µM | OVCAR-8 > 100 µM | MDA-N > 100 µM | A549 > 100 µM | BT-549 > 100 µM | NCI-H460 > 100 µM | LOX IMVI > 100 µM | HOP-62 > 100 µM | M14 > 100 µM | SN12C > 100 µM | SR > 100 µM | MDA-MB-435 > 100 µM | DU-145 > 100 µM | 786-0 > 100 µM | A498 > 100 µM | SF-268 > 100 µM | HCC 2998 40.4 µM | COLO 205 > 100 µM | UO-31 > 100 µM | T47D > 100 µM | UACC-257 > 100 µM | OVCAR-4 > 100 µM | EKVX 53.1 µM | HL-60 > 100 µM
